According to paper PMC10663540, “Structure-based discovery of dual pathway inhibitors for SARS-CoV-2 entry” (Nature Communications, 2023):
“And” between values parts separate entries of the source, which are not always exact repeats. Equal entries are not always repeated. Where two headings read alike, the source gives them in different places.

Columns and labels:
human CTSB = target: T1, human CTSB (Homo sapiens, UniProt P07858); assay: biochemical
T1 construct: […]; made in house

in vitro = details: human
[1] = tested on: SARS-CoV-2-S pseudotyped virus Omicron BA.2; assay: microbe, parasite or virus in culture; assay type: cell-based
[2] = tested on: SARS-CoV-2-S pseudotyped virus Omicron BA.4/BA.5; assay: microbe, parasite or virus in culture; assay type: cell-based
Calu-3 cells = details: rep1-rep3
TMPRSS2 = TMPRSS2 (Homo sapiens, UniProt O15393); assay: biochemical; assay type: biochemical
Chain of TMPRSS2 (O15393 256-492): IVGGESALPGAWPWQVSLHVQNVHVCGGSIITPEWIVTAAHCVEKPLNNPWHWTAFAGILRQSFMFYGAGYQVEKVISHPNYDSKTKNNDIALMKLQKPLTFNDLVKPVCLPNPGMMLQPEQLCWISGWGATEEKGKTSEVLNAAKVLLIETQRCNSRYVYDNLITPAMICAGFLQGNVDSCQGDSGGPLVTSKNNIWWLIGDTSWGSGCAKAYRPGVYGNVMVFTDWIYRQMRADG
Chain of TMPRSS2 (O15393 other isoform, or with tags, fused parts or gaps): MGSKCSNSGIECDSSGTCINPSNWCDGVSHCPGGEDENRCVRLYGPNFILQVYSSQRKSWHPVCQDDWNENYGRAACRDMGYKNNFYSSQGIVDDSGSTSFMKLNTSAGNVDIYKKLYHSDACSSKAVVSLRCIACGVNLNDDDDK

[3] = Severe acute respiratory syndrome coronavirus 2, Huh-7, read-out: Antiviral efficacy EC50 (95% CI)

NC(N)=Nc1ccc(C(=O)OCCN2CCN(C(=O)N[C@@H](Cc3ccccc3)C(=O)N[C@H](/C=C/S(=O)(=O)c3ccccc3)CCc3ccccc3)CC2)cc1 [212-148]
Inhibition: CTSB (human CTSB; 212-148 0.12207 nM, Fig. 5c): 8.76% and 9.57% and 12.06%
inhibition at 0.00012207 µM (human CTSB; 212-148 0.12207 nM, Fig. 5c): 9.32%
Inhibition: CTSB (human CTSB; 212-148 0.976562 nM, Fig. 5c): 5.21% and 6.50% and 2.50% and 12.34%
Inhibition: CTSB (human CTSB; 212-148 1.95312 nM, Fig. 5c): 10.95% and 10.99% and 12.44%
inhibition at 0.00195312 µM (human CTSB; 212-148 1.95312 nM, Fig. 5c): 20.7%
Inhibition: CTSB (human CTSB; 212-148 7.8125 nM, Fig. 5c): 6.62% and 15.92% and 9.45% and 14.93%
Inhibition: CTSB (human CTSB; 212-148 15.625 nM, Fig. 5c): 29.27% and 18.56% and 15.75%
inhibition at 0.015625 µM (human CTSB; 212-148 15.625 nM, Fig. 5c): 20.2%
Inhibition: CTSB (human CTSB; 212-148 31.25 nM, Fig. 5c): 38.89% and 26.87% and 33.63%
inhibition at 0.03125 µM (human CTSB; 212-148 31.25 nM, Fig. 5c): 31.5%
Inhibition: CTSB (human CTSB; 212-148 62.5 nM, Fig. 5c): 49.58% and 58.40% and 54.67%
inhibition at 0.0625 µM (human CTSB; 212-148 62.5 nM, Fig. 5c): 52.1%
Inhibition: CTSB (human CTSB; 212-148 125 nM, Fig. 5c): 77.49% and 76.59% and 75.86%
inhibition at 0.125 µM (human CTSB; 212-148 125 nM, Fig. 5c): 76.8%
Inhibition: CTSB (human CTSB; 212-148 250 nM, Fig. 5c): 92.13% and 95.19% and 101.10%
inhibition at 0.25 µM (human CTSB; 212-148 250 nM, Fig. 5c): 95.4%
Inhibition: CTSB (human CTSB; 212-148 500 nM, Fig. 5c): 95.97% and 101.09% and 103.70%
inhibition at 0.5 µM (human CTSB; 212-148 500 nM, Fig. 5c): 101%
Inhibition: CTSB (human CTSB; 212-148 1000 nM, Fig. 5c): 100.47% and 101.20% and 101.53%
inhibition at 1 µM (human CTSB; 212-148 1000 nM, Fig. 5c): 98.8%
Inhibition: CTSB (human CTSB; 212-148 2000 nM, Fig. 5c): 98.63% and 99.08% and 103.05%
inhibition at 2 µM (human CTSB; 212-148 2000 nM, Fig. 5c): 102%
IC50 (human CTSB; substrate Cbz-Phe-Arg-AMC, pH 5.5, mean ± SD, four replicates): 64.1 nM
CC50 (in vitro): 347000 nM
Inhibition: BA.2/Huh-7 ([1]; 212-148 0.00128 μM, Fig. 5d): 25.89% and 19.49%
Inhibition: BA.2/Huh-7 ([1]; 212-148 0.8 μM, Fig. 5d): 91.14% and 94.17%
Inhibition: BA.2/Huh-7 ([1]; 212-148 4 μM, Fig. 5d): 97.31% and 97.73%
Inhibition: BA.2/Huh-7 ([1]; 212-148 20 μM, Fig. 5d): 84.53% and 89.27%
inhibition at 0.00128 µM ([1]; Severe acute respiratory syndrome coronavirus 2, Huh-7, 120 h, 212-148 0.00128 μM, Fig. 5d): 38.3%
inhibition at 0.8 µM ([1]; Severe acute respiratory syndrome coronavirus 2, Huh-7, 120 h, 212-148 0.8 μM, Fig. 5d): 99.7%
inhibition at 4 µM ([1]; Severe acute respiratory syndrome coronavirus 2, Huh-7, 120 h, 212-148 4 μM, Fig. 5d): 83.7%
inhibition at 20 µM ([1]; Severe acute respiratory syndrome coronavirus 2, Huh-7, 120 h, 212-148 20 μM, Fig. 5d): 97.9%
EC50 [1, 3]: 5.7 nM
Inhibition: BA.4.5/Huh-7 ([2]; 212-148 2e-5 μM, Fig. 5d): 20.50% and 13.32% and 20.61%
Inhibition: BA.4.5/Huh-7 ([2]; 212-148 0.0002 μM, Fig. 5d): 32.55% and 30.98%
Inhibition: BA.4.5/Huh-7 ([2]; 212-148 0.002 μM, Fig. 5d): 62.17% and 52.89%
Inhibition: BA.4.5/Huh-7 ([2]; 212-148 0.02 μM, Fig. 5d): 82.60% and 83.49%
Inhibition: BA.4.5/Huh-7 ([2]; 212-148 0.2 μM, Fig. 5d): 89.43% and 91.48%
Inhibition: BA.4.5/Huh-7 ([2]; 212-148 2 μM, Fig. 5d): 89.92% and 91.92%
Inhibition: BA.4.5/Huh-7 ([2]; 212-148 20 μM, Fig. 5d): 95.01% and 96.39%
inhibition at 0.0002 µM ([2]; Severe acute respiratory syndrome coronavirus 2, Huh-7, 120 h, 212-148 0.0002 μM, Fig. 5d, read-out: Inhibition: BA.4.5/Huh-7): 43.8%
inhibition at 0.002 µM ([2]; Severe acute respiratory syndrome coronavirus 2, Huh-7, 120 h, 212-148 0.002 μM, Fig. 5d, read-out: Inhibition: BA.4.5/Huh-7): 63.5%
inhibition at 0.02 µM ([2]; Severe acute respiratory syndrome coronavirus 2, Huh-7, 120 h, 212-148 0.02 μM, Fig. 5d, read-out: Inhibition: BA.4.5/Huh-7): 84.4%
inhibition at 0.2 µM ([2]; Severe acute respiratory syndrome coronavirus 2, Huh-7, 120 h, 212-148 0.2 μM, Fig. 5d, read-out: Inhibition: BA.4.5/Huh-7): 86.9%
inhibition at 2 µM ([2]; Severe acute respiratory syndrome coronavirus 2, Huh-7, 120 h, 212-148 2 μM, Fig. 5d, read-out: Inhibition: BA.4.5/Huh-7): 86.8%
inhibition at 20 µM ([2]; Severe acute respiratory syndrome coronavirus 2, Huh-7, 120 h, 212-148 20 μM, Fig. 5d, read-out: Inhibition: BA.4.5/Huh-7): 92.5%
EC50 [2, 3]: 0.4 nM
Cytotoxicity (Calu-3 cells; 0.15 μM): 2.30% and 2.49% and 2.76%
Cytotoxicity (Calu-3 cells; 0.46 μM): 5.33% and 5.48% and 5.69%
Cytotoxicity (Calu-3 cells; 4.1 μM): -1.17% and -0.96% and -0.67%
Cytotoxicity (Calu-3 cells; 12.3 μM): 0.51% and 0.76% and 1.02%
Cytotoxicity (Calu-3 cells; 111.1 μM): -1.18% and -0.95% and -0.65%
Cytotoxicity (Calu-3 cells; 333.3 μM): 32.20% and 32.35% and 32.61%
Cytotoxicity (Calu-3 cells; 1000 μM): 84.78% and 84.85% and 84.92%
content remaining (LC-MS) (after two days in the medium that contains FBS, 125 μM): more than 50%
stability compared (in words) (same conditions as cell assay media): more stable than nafamostat
IC50 (TMPRSS2; 0.5 nM TMPRSS2, 10 μM substrate, mean ± SD, four replicates): 1380 nM
Inhibition: TMPRSS2 (TMPRSS2; 212-148 15.2588 nM, Fig. 5b): 5.04% and 4.06% and 3.14%
inhibition at 0.0152588 µM (TMPRSS2; 212-148 15.2588 nM, Fig. 5b): 3.01%
Inhibition: TMPRSS2 (TMPRSS2; 212-148 30.5176 nM, Fig. 5b): 3.05% and 3.16% and 4.84%
inhibition at 0.0305176 µM (TMPRSS2; 212-148 30.5176 nM, Fig. 5b): 4.19%
Inhibition: TMPRSS2 (TMPRSS2; 212-148 61.0352 nM, Fig. 5b): 6.85% and 6.15% and 3.83%
inhibition at 0.0610352 µM (TMPRSS2; 212-148 61.0352 nM, Fig. 5b): 6.56%
Inhibition: TMPRSS2 (TMPRSS2; 212-148 122.07 nM, Fig. 5b): 7.87% and 8.22% and 8.32%
inhibition at 0.12207 µM (TMPRSS2; 212-148 122.07 nM, Fig. 5b): 8.2%
Inhibition: TMPRSS2 (TMPRSS2; 212-148 244.141 nM, Fig. 5b): 13.88% and 12.56% and 13.21%
inhibition at 0.244141 µM (TMPRSS2; 212-148 244.141 nM, Fig. 5b): 13.6%
Inhibition: TMPRSS2 (TMPRSS2; 212-148 488.281 nM, Fig. 5b): 22.52% and 22.28% and 23.91%
inhibition at 0.488281 µM (TMPRSS2; 212-148 488.281 nM, Fig. 5b): 23.3%
